According to patent US20230233569A1 (Revolution Medicines, Inc., priority 2020, published 2023):
Where two headings read alike, the source gives them in different places.

Legend:
NRAS G12C = NRAS G12C (Homo sapiens, UniProt P01111+P62937, G12C); test: Disruption of BRAF RBD interaction with Ras (FRET / MOA assay, with Cyclophilin A); type: biochemical
KRAS G13D = KRAS G13D (Homo sapiens, UniProt P01116+P62937, G13D); test: as above; type: biochemical
Method in brief: (§1)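 TR-FRET readout: a drop in ratio relative to DMSO wells marks disruption of the K-Ras:BRAF RBD complex via compound-induced K-Ras–Cyclophilin A ternary complex. Dosing used ten 3-fold steps from 30 μM final, 3 h at 25 °C, then Eu-anti-His 10 nM plus APC-anti-GST 50 nM for another 1.5 h. Values are IC50s.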

KRAS WT = KRAS WT (Homo sapiens, UniProt P01116+P62937); test: as above; type: biochemical
Method in brief: as §1

KRAS G12S = KRAS G12S (Homo sapiens, UniProt P01116+P62937, G12S); test: as above; type: biochemical
Method in brief: as §1

KRAS G12V = KRAS G12V (Homo sapiens, UniProt P01116+P62937, G12V); test: as above; type: biochemical
Method in brief: as §1

KRAS G12D = KRAS G12D (Homo sapiens, UniProt P01116+P62937, G12D); test: as above; type: biochemical
Method in brief: as §1

KRAS G13C = KRAS G13C (Homo sapiens, UniProt P01116+P62937, G13C); test: as above; type: biochemical
Method in brief: as §1

KRAS G12C = KRAS G12C (Homo sapiens, UniProt P01116+P62937, G12C); test: as above; type: biochemical
Method in brief: as §1

NRAS Q61R = NRAS Q61R (Homo sapiens, UniProt P01111+P62937, Q61R); test: as above; type: biochemical; conditions: NRAS Q61R; read-out: NRAS Q61R FRET data IC50
Method in brief: (§2)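 IC50 reflects compound-driven Ras:Cyclophilin A ternary complex displacing BRAF RBD, read as lowered TR-FRET ratio relative to DMSO after Eu anti-His (10 nM) and APC anti-GST (50 nM) detection for 1.5 h. Prior incubation 3 h, 25° C, with 12.5 nM GMPPNP-loaded Ras, 50 nM BRAF RBD, 25 μM Cyclophilin A; top compound 30 μM.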

KRAS Q61H = KRAS Q61H (Homo sapiens, UniProt P01116+P62937, Q61H); test: as above; type: biochemical; conditions: KRAS Q61H; read-out: KRAS Q61H FRET data IC50
Method in brief: as §2

NRAS WT = NRAS WT (Homo sapiens, UniProt P01111+P62937); test: as above; type: biochemical; conditions: NRAS WT; read-out: NRAS WT FRET data IC50
Method in brief: as §2

NRAS Q61K = NRAS Q61K (Homo sapiens, UniProt P01111+P62937, Q61K); test: as above; type: biochemical; conditions: NRAS Q61K; read-out: NRAS Q61K FRET data IC50
Method in brief: as §2

Capan-1 (K-Ras G12V) = test: CellTiter-Glo cell viability assay, 5-day treatment; type: cell-based; conditions: Homo sapiens, CAPAN-1, 120 h, 5-day treatment; read-out: Capan-1 Cell Viability assay data (K-Ras G12V, IC50)
Method in brief: (§3)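 Compounds were dispensed directly onto seeded cells and incubated for 5 days, then plates were equilibrated to room temperature for about 30 minutes before luminescence reading. Signals were expressed as percent of the mean DMSO control and fitted with a four-parameter logistic curve.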

NCI-H358 (K-Ras G12C) = test: as above; type: cell-based; conditions: Homo sapiens, NCI-H358, 120 h, 5-day treatment; read-out: H358 Cell Viability assay data (K-Ras G12C, IC50)
Method in brief: as §3

[1] = NRAS G12C, read-out: NRAS G12C FRET data IC50
[2] = KRAS G13D, read-out: KRAS G13D FRET data IC50
[3] = KRAS WT, read-out: KRAS WT FRET data IC50
[4] = read-out: KRAS G12S FRET data, IC50
[5] = KRAS G12V, read-out: KRAS G12V FRET data IC50
[6] = read-out: KRAS G12D FRET data, IC50
[7] = read-out: KRAS G13C FRET data, IC50
[8] = read-out: KRAS G12C FRET data, IC50

Sequence of NRAS G12C (P01111 whole entry G12C): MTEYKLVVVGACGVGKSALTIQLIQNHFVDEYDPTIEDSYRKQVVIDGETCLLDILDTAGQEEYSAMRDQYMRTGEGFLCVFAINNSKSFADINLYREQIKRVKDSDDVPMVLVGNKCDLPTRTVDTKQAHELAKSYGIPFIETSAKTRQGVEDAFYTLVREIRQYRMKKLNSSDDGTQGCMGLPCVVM
Sequence of NRAS G12C (P62937 whole entry): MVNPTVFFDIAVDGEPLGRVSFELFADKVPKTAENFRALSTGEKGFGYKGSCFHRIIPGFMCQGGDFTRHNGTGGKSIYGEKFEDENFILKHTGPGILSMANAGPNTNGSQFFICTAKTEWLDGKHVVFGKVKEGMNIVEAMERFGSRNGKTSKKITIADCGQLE
Sequence of KRAS G12S (P01116 1-169 isoform P01116-2 G12S limits assumed): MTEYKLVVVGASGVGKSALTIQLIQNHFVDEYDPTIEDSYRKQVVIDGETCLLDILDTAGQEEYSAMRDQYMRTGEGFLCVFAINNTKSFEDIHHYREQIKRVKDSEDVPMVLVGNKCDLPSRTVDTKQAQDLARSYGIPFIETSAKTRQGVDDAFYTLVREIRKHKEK
Sequence of KRAS G12S (P62937 whole entry): as the sequence (P62937 whole entry) above
Sequence of NRAS WT (P01111 whole entry): as the sequence (P01111 whole entry G12C) above, with C12G counted along it
Sequence of NRAS WT (P62937 whole entry): as the sequence (P62937 whole entry) above
Sequence of KRAS G12C (P01116 1-169 isoform P01116-2 G12C): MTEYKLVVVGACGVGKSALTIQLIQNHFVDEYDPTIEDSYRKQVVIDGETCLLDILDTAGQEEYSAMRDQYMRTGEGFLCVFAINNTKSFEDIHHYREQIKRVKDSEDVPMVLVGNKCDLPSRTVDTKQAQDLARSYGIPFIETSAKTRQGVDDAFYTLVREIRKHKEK
Sequence of KRAS G12C (P62937 whole entry): as the sequence (P62937 whole entry) above
Sequence of KRAS G13D (P01116 1-169 isoform P01116-2 G13D limits assumed): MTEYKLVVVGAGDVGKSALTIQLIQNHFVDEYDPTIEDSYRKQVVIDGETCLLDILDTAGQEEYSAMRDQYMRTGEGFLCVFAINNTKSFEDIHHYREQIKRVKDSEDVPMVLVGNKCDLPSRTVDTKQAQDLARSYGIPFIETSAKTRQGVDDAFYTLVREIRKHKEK
Sequence of KRAS G13D (P62937 whole entry): as the sequence (P62937 whole entry) above
Sequence of NRAS Q61R (P01111 whole entry Q61R): as the sequence (P01111 whole entry G12C) above, with C12G, Q61R counted along it
Sequence of NRAS Q61R (P62937 whole entry): as the sequence (P62937 whole entry) above
Sequence of KRAS G12V (P01116 1-169 isoform P01116-2 G12V limits assumed): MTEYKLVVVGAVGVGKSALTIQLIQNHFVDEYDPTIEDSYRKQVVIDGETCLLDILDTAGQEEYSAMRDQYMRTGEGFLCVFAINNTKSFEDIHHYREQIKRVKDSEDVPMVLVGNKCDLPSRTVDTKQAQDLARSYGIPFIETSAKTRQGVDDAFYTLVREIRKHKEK
Sequence of KRAS G12V (P62937 whole entry): as the sequence (P62937 whole entry) above
Sequence of KRAS WT (P01116 1-169 isoform P01116-2 limits assumed): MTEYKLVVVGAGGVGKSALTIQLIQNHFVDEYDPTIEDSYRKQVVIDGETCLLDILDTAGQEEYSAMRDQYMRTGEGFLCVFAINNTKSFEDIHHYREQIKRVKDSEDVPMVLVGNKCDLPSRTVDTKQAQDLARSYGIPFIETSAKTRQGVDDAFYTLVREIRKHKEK
Sequence of KRAS WT (P62937 whole entry): as the sequence (P62937 whole entry) above
Sequence of KRAS Q61H (P01116 1-169 isoform P01116-2 Q61H limits assumed): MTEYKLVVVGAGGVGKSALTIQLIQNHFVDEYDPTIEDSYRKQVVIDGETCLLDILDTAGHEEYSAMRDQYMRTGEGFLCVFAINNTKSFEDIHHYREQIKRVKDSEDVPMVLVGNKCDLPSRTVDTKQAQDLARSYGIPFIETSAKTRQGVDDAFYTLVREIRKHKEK
Sequence of KRAS Q61H (P62937 whole entry): as the sequence (P62937 whole entry) above
Sequence of NRAS Q61K (P01111 whole entry Q61K): as the sequence (P01111 whole entry G12C) above, with C12G, Q61K counted along it
Sequence of NRAS Q61K (P62937 whole entry): as the sequence (P62937 whole entry) above
Sequence of KRAS G13C (P01116 1-169 isoform P01116-2 G13C): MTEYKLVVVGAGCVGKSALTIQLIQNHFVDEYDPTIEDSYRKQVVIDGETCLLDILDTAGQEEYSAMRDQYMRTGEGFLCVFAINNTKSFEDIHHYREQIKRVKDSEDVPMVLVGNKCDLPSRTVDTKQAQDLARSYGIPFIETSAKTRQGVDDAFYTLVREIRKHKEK
Sequence of KRAS G13C (P62937 whole entry): as the sequence (P62937 whole entry) above
Sequence of KRAS G12D (P01116 1-169 isoform P01116-2 G12D limits assumed): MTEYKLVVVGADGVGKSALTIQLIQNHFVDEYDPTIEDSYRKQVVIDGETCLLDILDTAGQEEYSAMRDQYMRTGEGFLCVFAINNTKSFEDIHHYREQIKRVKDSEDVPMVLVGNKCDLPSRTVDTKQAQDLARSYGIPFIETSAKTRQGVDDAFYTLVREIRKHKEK
Sequence of KRAS G12D (P62937 whole entry): as the sequence (P62937 whole entry) above

| Compound | IC50 (NRAS G12C; [1]) | IC50 (KRAS G13D; [2]) | IC50 (KRAS WT; [3]) | IC50 (KRAS G12S; [4]) | IC50 (KRAS G12V; [5]) | IC50 (KRAS G12D; [6]) | IC50 (KRAS G13C; [7]) | IC50 (KRAS G12C; [8]) | IC50 (NRAS Q61R) | IC50 (KRAS Q61H) | IC50 (NRAS WT) | IC50 (NRAS Q61K) | IC50 (Capan-1 (K-Ras G12V)) | IC50 (NCI-H358 (K-Ras G12C)) | also measured |
| --- | --- | --- | --- | --- | --- | --- | --- | --- | --- | --- | --- | --- | --- | --- | --- |
| CCn1c(-c2cccnc2[C@H](C)OC)c2c3cc(ccc31)-c1csc(n1)C[C@H](NC(=O)[C@H](C(C)C)N(C)C(=O)N1CC([C@H](C)NC)C1)C(=O)N1CCC[C@H](N1)C(=O)OCC(C)(C)C2 [Example A535] | 100 to 1000 nM | 100 to 1000 nM | 100 to 1000 nM | 100 to 1000 nM | 100 to 1000 nM | 1000 to 10000 nM | 100 to 1000 nM | 100 to 1000 nM | 100 to 1000 nM | 100 to 1000 nM | 100 to 1000 nM | 100 to 1000 nM | 100 to 1000 nM | 100 to 1000 nM | – |
| CCn1c(-c2cccnc2[C@H](C)OC)c2c3cc(ccc31)-c1csc(n1)C[C@H](NC(=O)[C@H](C(C)C)N(C)C(=O)N1CC3CCN(C)CC31)C(=O)N1CCC[C@H](N1)C(=O)OCC(C)(C)C2 (stereo partly shown) [Example A539] | 100 to 1000 nM | 1000 to 10000 nM | 1000 to 10000 nM | 1000 to 10000 nM | 1000 to 10000 nM | 1000 to 10000 nM | 1000 to 10000 nM | 1000 to 10000 nM | 1000 to 10000 nM | 1000 to 10000 nM | 1000 to 10000 nM | 1000 to 10000 nM | 100 to 1000 nM | 100 to 1000 nM | – |
| CCn1c(-c2cccnc2[C@H](C)OC)c2c3cc(ccc31)-c1csc(n1)C[C@H](NC(=O)[C@H](C(C)C)N(C)C(=O)N1C3CC1CN(C)C3)C(=O)N1CCC[C@H](N1)C(=O)OCC(C)(C)C2 [Example A541] | 100 to 1000 nM | 1000 to 10000 nM | 100 to 1000 nM | 100 to 1000 nM | 100 to 1000 nM | 1000 to 10000 nM | 100 to 1000 nM | 100 to 1000 nM | 100 to 1000 nM | 100 to 1000 nM | 100 to 1000 nM | 100 to 1000 nM | 100 to 1000 nM | 10 to 100 nM | – |
| CCn1c(-c2cccnc2[C@H](C)OC)c2c3cc(ccc31)-c1csc(n1)C[C@H](NC(=O)[C@H](C(C)C)N(C)C(=O)N1CCN3CCOC[C@@H]3C1)C(=O)N1CCC[C@H](N1)C(=O)OCC(C)(C)C2 [Example A547] | 100 to 1000 nM | 1000 to 10000 nM | 100 to 1000 nM | 100 to 1000 nM | 100 to 1000 nM | 1000 to 10000 nM | 100 to 1000 nM | 100 to 1000 nM | 100 to 1000 nM | 100 to 1000 nM | 100 to 1000 nM | 100 to 1000 nM | 10 to 100 nM | 10 to 100 nM | – |
| CCn1c(-c2cccnc2[C@H](C)OC)c2c3cc(ccc31)-c1csc(n1)C[C@H](NC(=O)[C@H](C(C)C)N(C)C(=O)N1CCN3CCOC[C@H]3C1)C(=O)N1CCC[C@H](N1)C(=O)OCC(C)(C)C2 [Example A548] | 100 to 1000 nM | 1000 to 10000 nM | 100 to 1000 nM | 1000 to 10000 nM | 100 to 1000 nM | 1000 to 10000 nM | 100 to 1000 nM | 100 to 1000 nM | 100 to 1000 nM | 100 to 1000 nM | 100 to 1000 nM | 100 to 1000 nM | 10 to 100 nM | 10 to 100 nM | – |
| CCn1c(-c2cccnc2[C@H](C)OC)c2c3cc(ccc31)-c1csc(n1)C[C@H](NC(=O)[C@H](C(C)C)N(C)C(=O)N1CCN(C)CC1)C(=O)N1CCC[C@H](N1)C(=O)OCC(C)(C)C2 [Example A570] | 100 to 1000 nM | 100 to 1000 nM | 100 to 1000 nM | 100 to 1000 nM | 100 to 1000 nM | 1000 to 10000 nM | 100 to 1000 nM | 100 to 1000 nM | 100 to 1000 nM | 100 to 1000 nM | 100 to 1000 nM | 100 to 1000 nM | 10 to 100 nM | 10 to 100 nM | – |
| CCn1c(-c2cccnc2[C@H](C)OC)c2c3cc(ccc31)-c1csc(n1)C[C@H](NC(=O)[C@H](C(C)C)N(C)C(=O)N1CCOC[C@@H]1CN(C)C)C(=O)N1CCC[C@H](N1)C(=O)OCC(C)(C)C2 [Example A572] | – | – | – | – | – | – | – | – | 1000 to 10000 nM | 100 to 1000 nM | 1000 to 10000 nM | 1000 to 10000 nM | 1000 to 10000 nM | 100 to 1000 nM | IC50 (NRAS G12C; NRAS G12C FRET data IC50, NRAS G12C): 1000 to 10000 nM; IC50 (KRAS G13D; KRAS G13D FRET data IC50, KRAS G13D): 1000 to 10000 nM; IC50 (KRAS WT; KRAS WT FRET data IC50, KRAS WT): 1000 to 10000 nM; IC50 (KRAS G12S; KRAS G12S FRET data, IC50): 1000 to 10000 nM; IC50 (KRAS G12V; KRAS G12V FRET data IC50, KRAS G12V): 1000 to 10000 nM; IC50 (KRAS G12D; KRAS G12D FRET data, IC50): 1000 to 10000 nM; IC50 (KRAS G13C; KRAS G13C FRET data, IC50): 1000 to 10000 nM; IC50 (KRAS G12C; KRAS G12C FRET data, IC50): 1000 to 10000 nM |
| CCn1c(-c2cccnc2[C@H](C)OC)c2c3cc(ccc31)-c1csc(n1)C[C@H](NC(=O)[C@H](C(C)C)N(C)C(=O)N1CCC[C@@H](CN(C)C)C1)C(=O)N1CCC[C@H](N1)C(=O)OCC(C)(C)C2 [Example A574] | 10 to 100 nM | 100 to 1000 nM | 10 to 100 nM | 100 to 1000 nM | 100 to 1000 nM | 100 to 1000 nM | 100 to 1000 nM | 10 to 100 nM | 100 to 1000 nM | 10 to 100 nM | 10 to 100 nM | 10 to 100 nM | 10 to 100 nM | 10 to 100 nM | – |
